Data: patent publication US20210330698A1, “METHODS AND COMPOSITIONS FOR INHIBITING ENVELOPED VIRUSES USING LOW MOLECULAR WEIGHT HYDROPHOBICALLY MODIFIED POLYMERS” (Johnson & Johnson Consumer Inc., priority 2020, published 2021)

Columns and labels:
Type in all cases: cell-based
HIV-1IIIB = assay: Time of compound addition in HeLa-CD4-LTR-β-Gal cells; conditions: time of compound addition relative to virus addition
Description: HeLa-CD4-LTR-β-Gal cells are seeded at a density of 1×10^4 cells/well in a volume of 100 μL 24 hours prior to assay initiation and incubated at 37° C./5% CO2. Following the incubation compound is serially diluted at the specified concentrations and were added to the cells in triplicate at timepoints of −30 minutes, 0, 1, 2, 4, 8 and 24 hours pre- or post-virus addition in a volume of 100 μL. HIV-1IIIB is added to the cells at a pre-determined titer. The cultures are incubated at 37° C./5% CO2 for 48 hours at which time efficacy is evaluated using a chemiluminescent substrate (Gal-Screen™, ThermoFisher Scientific, Waltham, Mass.) and toxicity (three timepoints of 0, 4 and 24 hours) evaluated using the tetrazolium dye XTT.

Ca Ski (Cervical) cells = assay: Toxicity to Ca Ski cells (XTT); conditions: exposure 24 h
Description: (§1) TC50 values for the test materials are derived by measuring the reduction of the tetrazolium dye XTT (2,3-bis(2-methoxy-4-nitro-5-sulfophenyl)-5-[(phenylamino)carbonyl]-2H-tetrazolium hydroxide). XTT in metabolically active cells is metabolized by the mitochondrial enzyme Nicotinamide adenine dinucleotide phosphate oxidase (“NADPH”) to a soluble formazan product. XTT solution is prepared daily as a stock of 1 mg/ml in RPMI-1640 without additives. Phenazine methosulfate (PMS) solution is prepared at 0.15 mg/ml in DPBS and stored in the dark at −20° C. XTT/PMS stock is prepared immediately before use by adding 40 μL of PMS per ml of XTT solution. […] of XTT/PMS is added to each well of the plate and the plate incubated for 4 hours at 37° C. The 4 hour incubation has been empirically determined to be within the linear response range for XTT dye reduction with the indicated numbers of cells for each assay. The plates are sealed and inverted several times to mix the soluble formazan product and the plate is read at 450 nm (650 nm reference wavelength) with a Molecular Devices SpectraMax Plus 384 96 well plate format spectrophotometer.
(§2) Twenty-four hours prior to compound exposure, 100 μL of cells are plated at 5×10^4 cells per well in a flat-bottomed plate and. […] The plates are incubated at 5% CO2/37° C. for an additional 24 hours and then evaluated using XTT as described above.

ME180 (Cervical) cells = assay: Toxicity to ME180 cells (XTT); conditions: exposure 24 h
Description: as §1, §2

[1] = system: Vaginal Ectocervical Tissues; assay: Toxicity to vaginal ectocervical tissue (MTT); conditions: exposure 24 h
Description: On the day of the assay, the MatTek assay media is warmed and 900 μL added to each well of a 6-well plate. One hour prior to dosing, the epivaginal tissues are removed from the refrigerator and placed in the 6-well plate and the plate then incubated for 1 hour at 37° C./5% CO2. Following the incubation the media is removed from the 6 well plate and 900 μL of fresh media added. One-hundred microliters (100 μL) of each concentration is added in duplicate to the epivaginal tissue. The plate is then incubated for an additional 24 hours at 37° C./5% CO2. One hour prior to the end of the incubation, 1 mg/mL (3-(4,5-Dimethylthiazol-2-yl)-2,5-diphenyltetrazolium bromide (hereinafter, “MTT” available from Invitrogen of Carlsbad, Calif.) in DMEM is prepared. Fifteen minutes prior to the end of the incubation 300 μL of MTT is added to each well of a 24-well plate. Following the incubation, residual liquid is removed from the tissue and then gently rinsed two times with PBS. Each epivaginal tissue insert is then transferred to an individual well of the 24-well plate containing the MTT solution. The plate is then incubated for 3 hours at 37° C./5% CO2. […] The optical density of each sample is determined at 570 nm with a background of 650 nm. The % viability is determined to be 100×[OD(sample)/OD(negative control)]. […]

| Molecule | Time in which Antiviral Activity is Lost (HIV-1IIIB) | toxic concentration (Ca Ski (Cervical) cells) | toxic concentration (ME180 (Cervical) cells) | toxic concentration [1] |
| --- | --- | --- | --- | --- |
| O=C1Nc2ccc(Cl)cc2[C@@](C#CC2CC2)(C(F)(F)F)O1 [Efavirenz] | 4 to 8 h | – | – | – |
| Nonoxynol-9 [Embodiment N-9] | – | 36.31 µg/mL | 41.83 µg/mL | 100 to 1000 µg/mL |
